Columns and labels:
[1] = molecular target: Arachidonate 5-lipoxygenase (Cavia porcellus); assay: In vitro 5-lipoxygenase inhibition in guinea pig PMNs was determined based on LTB4 production
[2] = molecular target: Arachidonate 5-lipoxygenase (Cavia porcellus); assay: In vitro 5-lipoxygenase inhibition in guinea pig PMNs was determined based on 5-hydroxyeicosapentaenoic acid (5-HETE) production

Row | IC50 [1] [nM] | IC50 [2] [nM] | SMILES
1 | 130 | 120 | NC(=O)N(O)CC1=Cc2cc(Oc3ccccc3)ccc2SCC1 [N-hydroxy-N-[(7-phenoxy-2,3-dihydro-1-benzothiepin-4-yl)methyl]urea]
2 | 91 | 89 | NC(=O)N(O)CC1=Cc2cc(Oc3ccccc3)ccc2OCC1 [N-hydroxy-N-[(7-phenoxy-2,3-dihydro-1-benzoxepin-4-yl)methyl]urea]
3 | 210 | 180 | NC(=O)N(O)CC1=Cc2ccc(Oc3ccccc3)cc2OCC1 [N-hydroxy-N-[(8-phenoxy-2,3-dihydro-1-benzoxepin-4-yl)methyl]urea]
4 | 130 | 100 | CNC(=O)N(O)CC1=Cc2cc(Oc3ccc(F)cc3)ccc2OCC1 [N-{[7-(4-fluorophenoxy)-2,3-dihydro-1-benzoxepin-4-yl]methyl}-N-hydroxy-N'-methylurea]
5 | 98 | 91 | NC(=O)N(O)CC1=Cc2cc(Oc3ccc(F)cc3)ccc2OCC1 [N-{[7-(4-fluorophenoxy)-2,3-dihydro-1-benzoxepin-4-yl]methyl}-N-hydroxyurea]
